A value given as a limit tells only on which side of the number the result lay.

The first assay has as its target mTOR/GbL/Raptor (mTORC1) (Homo sapiens, UniProt P42345). The assay is described as follows: mTOR/GbL/Raptor (mTORC1) ELISA assay, phosphorylation of 4E-BP1. In kind it is biochemical. The following applies: 0.2 nM mTORC1, 10 μM ATP, 50 nM NHis-tagged 4E-BP1; read-out: Activity in mTOR/GbL/Raptor ELISA Assay. On the procedure: mTOR/GbL/Raptor (mTORC1) ELISA Assay
The measurement of mTORC1 enzyme activity was performed in an ELISA assay format following the phosphorylation of 4E-BP1 protein. All experiments were performed in the 384-well format. Generally, 0.5 μL DMSO containing varying concentrations of the test compound was mixed with 15 μL enzyme solution. Kinase reactions were initiated with the addition of 15 μL of substrates-containing solution. The assay conditions were as follows; 0.2 nM mTORC1, 10 μM ATP and 50 nM NHis-tagged 4E-BP1 in 20 mM Hepes, pH 7.2, 1 mM DTT, 50 mM NaCl, 10 mM MnCl2, 0.02 mg/mL BSA, 0.01% CHAPS, 50 mM β-glycerophosphate. Following an incubation of 120 minutes at ambient temperature, 20 μL of the reaction volume was transferred to a Ni-Chelate-coated 384-well plate. The binding step of the 4E-BP1 protein proceeded for 60 minutes, followed by washing 4 times each with 50 μL of Tris-buffered saline solution (TBS). Anti-phospho-4E-BP1 rabbit-IgG (20 μL, 1:5000) in 5% BSA-TBST (0.2% Tween-20 in TBS) was added and further incubated for 60 minutes. Incubation with a secondary HRP-tagged anti-IgG was similarly performed after washing off the primary antibody (4 washes of 50 μL). Following the final wash step with TBST, 20 μL of SuperSignal ELISA Femto (Pierce Biotechnology) was added and the luminescence measured using an EnVision plate reader.
In general terms: ELISA stands for enzyme-linked immunosorbent assay.
Turning to `O=C(c1ccc(C(O)(O)C(F)(F)F)cc1)N1CCOc2ccc(-c3ccc(-c4ncc[nH]4)cc3)cc2C1` [2,2,2-trifluoro-1-[4-({7-[4-(1H-imidazol-2-yl)phenyl]-2,3-dihydro-1,4-benzoxazepin-4(5H)-yl}carbonyl)phenyl]ethane-1,1-diol], the IC50 was found to be 3 nM.

For `CCc1c(C(=O)N2CCOc3ccc(-c4ccc(NC(=O)N(C)C)cc4)cc3C2)ccc(S(C)(=O)=O)c1F` [3-[4-(4-{[2-ethyl-3-fluoro-4-(methylsulfonyl)phenyl]carbonyl}-2,3,4,5-tetrahydro-1,4-benzoxazepin-7-yl)phenyl]-1,1-dimethylurea], the IC50 was determined as 14.4 nM.

Regarding `CCc1c(C(=O)N2CCOc3ccc(-c4ccc(C(=O)NC)c(F)c4)cc3C2)ccc(S(C)(=O)=O)c1F` [4-(4-{[2-ethyl-3-fluoro-4-(methylsulfonyl)phenyl]carbonyl}-2,3,4,5-tetrahydro-1,4-benzoxazepin-7-yl)-2-fluoro-N-methylbenzamide], the IC50 turned out to be 11.9 nM.

As for `Cc1nc2ccc(-c3ccc4c(c3)CN(C(=O)c3ccc5c(c3)CCS5(=O)=O)CCO4)cc2[nH]1` [4-[(1,1-dioxido-2,3-dihydro-1-benzothien-5-yl)carbonyl]-7-(2-methyl-1H-benzimidazol-6-yl)-2,3,4,5-tetrahydro-1,4-benzoxazepine], the IC50 came out at 4.8 nM.

With `Cc1nc2ccc(-c3ccc4c(c3)CN(C(=O)c3cc5nc(C)sc5n3C)CCO4)cc2[nH]1` [4-[(2,4-dimethyl-4H-pyrrolo[3,2-d][1,3]thiazol-5-yl)carbonyl]-7-(2-methyl-1H-benzimidazol-6-yl)-2,3,4,5-tetrahydro-1,4-benzoxazepine], the IC50 was found to be 17.2 nM.

As for `CCn1c(C(=O)N2CCOc3ccc(-c4ccc5nc(C)[nH]c5c4)cc3C2)c(Cl)c2ccccc21` [4-[(3-chloro-1-ethyl-1H-indol-2-yl)carbonyl]-7-(2-methyl-1H-benzimidazol-6-yl)-2,3,4,5-tetrahydro-1,4-benzoxazepine], the IC50 came out at 9.5 nM.

With `COc1ccc(OC)c(S(=O)(=O)c2ccc(C(=O)N3CCOc4ccc(-c5ccc6nc(C)[nH]c6c5)cc4C3)cc2)c1` [4-[(4-{[2,5-bis(methyloxy)phenyl]sulfonyl}phenyl)carbonyl]-7-(2-methyl-1H-benzimidazol-6-yl)-2,3,4,5-tetrahydro-1,4-benzoxazepine], the IC50 worked out at 3.2 nM.

As to `CCc1c(C(=O)N2CCOc3ccc(-c4ccc(-c5nc6ccc(C)cc6[nH]5)cc4)cc3C2)ccc(S(C)(=O)=O)c1F` [4-{[2-ethyl-3-fluoro-4-(methylsulfonyl)phenyl]carbonyl}-7-[4-(6-methyl-1H-benzimidazol-2-yl)phenyl]-2,3,4,5-tetrahydro-1,4-benzoxazepine], the IC50 came out at 6 nM.

As to `CC(C)NS(=O)(=O)c1ccc(C(=O)N2CCOc3ccc(-c4ccc5nc[nH]c5c4)cc3C2)c(Br)c1` [4-{[7-(1H-benzimidazol-6-yl)-2,3-dihydro-1,4-benzoxazepin-4(5H)-yl]carbonyl}-3-bromo-N-(1-methylethyl)benzenesulfonamide], the IC50 came out at 5.6 nM.

Take `Nc1ccc(-c2ccc3c(c2)CN(C(=O)c2ccc(S(N)(=O)=O)cc2)CCO3)cn1` [4-{[7-(6-aminopyridin-3-yl)-2,3-dihydro-1,4-benzoxazepin-4(5H)-yl]carbonyl}benzenesulfonamide]: the IC50 turned out to be 6.6 nM.

For the compound `Cc1ccc(C(=O)N2CCOc3ccc(-c4ccc5nc[nH]c5c4)cc3C2)c(C)c1` [7-(1H-benzimidazol-6-yl)-4-[(2,4-dimethylphenyl)carbonyl]-2,3,4,5-tetrahydro-1,4-benzoxazepine], the IC50 was 6.4 nM.

Turning to `O=C(c1ccc(-c2csnn2)cc1)N1CCOc2ccc(-c3ccc4cn[nH]c4c3)cc2C1` [7-(1H-indazol-6-yl)-4-{[4-(1,2,3-thiadiazol-4-yl)phenyl]carbonyl}-2,3,4,5-tetrahydro-1,4-benzoxazepine], the IC50 came out at 6.3 nM.

In the case of `Cc1nc2ccc(-c3ccc4c(c3)CN(C(=O)c3ccc(S(=O)(=O)N5CCN(C)CC5)cc3)CCO4)cc2[nH]1` [7-(2-methyl-1H-benzimidazol-6-yl)-4-({4-[(4-methylpiperazin-1-yl)sulfonyl]phenyl}carbonyl)-2,3,4,5-tetrahydro-1,4-benzoxazepine], the IC50 was found to be 8.6 nM.

As to `Cc1nc2ccc(-c3ccc4c(c3)CN(C(=O)c3cc(S(=O)(=O)N5CCCC5)cn3C)CCO4)cc2[nH]1` [7-(2-methyl-1H-benzimidazol-6-yl)-4-{[1-methyl-4-(pyrrolidin-1-ylsulfonyl)-1H-pyrrol-2-yl]carbonyl}-2,3,4,5-tetrahydro-1,4-benzoxazepine], the IC50 came out at 7.1 nM.

Consider `CCc1c(C(=O)N2CCOc3ccc(-c4ccc(C(=O)NCC5CNC5)cc4)cc3C2)ccc(S(C)(=O)=O)c1F` [N-(azetidin-3-ylmethyl)-4-(4-{[2-ethyl-3-fluoro-4-(methylsulfonyl)phenyl]carbonyl}-2,3,4,5-tetrahydro-1,4-benzoxazepin-7-yl)benzamide], for which the IC50 worked out at 9.9 nM.

With `CCc1c(C(=O)N2CCOc3ccc(-c4cnc(NCCNC)s4)cc3C2)ccc(S(C)(=O)=O)c1F` [N-[5-(4-{[2-ethyl-3-fluoro-4-(methylsulfonyl)phenyl]carbonyl}-2,3,4,5-tetrahydro-1,4-benzoxazepin-7-yl)-1,3-thiazol-2-yl]-N′-methylethane-1,2-diamine], the IC50 worked out at 5.3 nM.

The assay is the same for the next values; noted with them: 0.2 nM mTORC1, 10 μM ATP, 50 nM NHis-tagged 4E-BP1; read-out: activity in mTOR/GbL/Raptor (mTORC1) ELISA assay, activity bands by Table 1 compound number.
In the case of `CCS(=O)(=O)c1ccc(C(=O)N2CCOc3ccc(-c4ccc(N)nc4)cc3C2)c(C)c1F` [Example 566, 5-(4-{[4-(ethylsulfonyl)-3-fluoro-2-methylphenyl]carbonyl}-2,3,4,5-tetrahydro-1,4-benzoxazepin-7-yl)pyridin-2-amine], the IC50 was not above 10 nM.

Turning to `O=C(c1ccc(C(=O)C(F)(F)F)cc1)N1CCOc2ccc(-c3cccnc3)cc2C1` [Example 884, 2,2,2-trifluoro-1-{4-[(7-pyridin-3-yl-2,3-dihydro-1,4-benzoxazepin-4(5H)-yl)carbonyl]phenyl}ethanone], the IC50 was in the range of 10 to 100 nM.

In the case of `COc1ccc(-c2ccc3c(c2)CN(C(=O)c2ccc(S(N)(=O)=O)cc2)CCO3)cn1` [Example 885, 4-({7-[6-(methyloxy)pyridin-3-yl]-2,3-dihydro-1,4-benzoxazepin-4(5H)-yl}carbonyl)benzenesulfonamide], the IC50 fell in the range of 10 to 100 nM.

With `COc1ccc(-c2ccc3c(c2)CN(C(=O)c2ccc(S(C)(=O)=O)cc2)CCO3)cn1` [Example 886, 7-[6-(methyloxy)pyridin-3-yl]-4-{[4-(methylsulfonyl)phenyl]carbonyl}-2,3,4,5-tetrahydro-1,4-benzoxazepine], the IC50 was 100 to 500 nM.

On to `COc1ccc(-c2ccc3c(c2)CN(C(=O)c2ccc(C(=O)C(F)(F)F)cc2)CCO3)cn1` [Example 887, 2,2,2-trifluoro-1-[4-({7-[6-(methyloxy)pyridin-3-yl]-2,3-dihydro-1,4-benzoxazepin-4(5H)-yl}carbonyl)phenyl]ethanone], for which the IC50 was 10 to 100 nM.

For `CS(=O)(=O)c1ccc(C(=O)N2CCOc3ccc(-c4ccc(N)nc4)cc3C2)cc1` [Example 888, 5-(4-{[4-(methylsulfonyl)phenyl]carbonyl}-2,3,4,5-tetrahydro-1,4-benzoxazepin-7-yl)pyridin-2-amine], the IC50 lay within 10 to 100 nM.

Values taken from patent US20100305093A1, “Inhibitors of mTOR and Methods of Making and Using” (EXELIXIS, INC., priority 2009, published 2010).
